Test results: patent publication US7674816B2, “Substituted melatonin derivatives, process for their preparation, and methods of use” (Abraxis BioScience, LLC, priority 2003, dated 2010)
pIC50: −log10 of the molar value. Like-named read-outs stand apart in the source and are kept apart here.

Key:
[1] = test system: GABAA agonist site; experiment: GABAA agonist site competitive binding (3H-GABA); conditions: bovine hippocampus
From the text: (§1) The binding profile of exemplary inventive compounds to neurotransmitter receptor sites is set forth below in Table 1. The characterization of the receptors, isolation of the membrane, and enzyme assay have been described in detail previously (see, e.g., Cole et al., Life Sci., 35, 1755 (1984), Lawrence et al., J. Neurochem., 45(3), 798 (1985), Sweetnam et al., Mol. Pharmacology, 29, 299 (1986), Zarkovsky et al., Neuropharmacology, 26 (7A), 737 (1987), Li et al., Eur. J. Pharmacology, 413, 63 (2001), and Markela et al., Mol. Pharmacology, 52, 380 (1997)).
(§2) The melatonin binding site on GABAA was defined using a series of competitive binding assays. Frozen bovine hippocampus was thawed and homogenized in 40 volumes of ice-cold 0.32 M sucrose. The suspension was centrifuged at 1000×g for 10 minutes at 4° C. The pellet was washed twice in assay buffer and reacted with radioactive ligand in presence or absence of melatonin at 10^−4 M final concentration. The amount of radioactivity remained on the Whatman filter following filtration of the reaction mix and two washes with assay buffer was determined using a liquid scintillation counter. Inhibition of radioactive ligand binding by melatonin represents the competitive binding of melatonin to the same site as the radioactive ligand. GABAA agonist site, GABAA α-1 site, GABAA α-5 site, GABAA α-6 site, and GABAA Cl channel were assayed using ^3H-GABA, ^3H-flunitrazepam, ^3H-RY80, ^3H-Ro 15-4513, and ^3H-TBOB.

[2] = test system: GABAA α-1 site; experiment: GABAA alpha 1 site competitive binding (3H-flunitrazepam); conditions: Conc. 1.0E−4 M, bovine hippocampus
From the text: as §1, §2

[3] = test system: GABAA α-6 site; experiment: GABAA alpha 6 site competitive binding (3H-Ro 15-4513); conditions: Conc. 1.0E−4 M, bovine hippocampus
From the text: as §1, §2

[4] = test system: GABAA Cl channel; experiment: GABAA Cl channel, TBOB site competitive binding (3H-TBOB), single concentration; conditions: Conc. 1.0E−4 M, bovine hippocampus
From the text: as §1, §2

[5] = test system: rats; conditions: cited from earlier work; for ED95 (95% CI, for loss of righting reflex): intravenous
[6] = test system: GABAA α-1 site; experiment: GABAA alpha 1 site competitive binding (3H-flunitrazepam); conditions: Conc. 1.0E−3 M, bovine hippocampus
[7] = test system: GABAA α-6 site; experiment: GABAA alpha 6 site competitive binding (3H-Ro 15-4513); conditions: Conc. 1.0E−3 M, bovine hippocampus
[8] = test system: GABAA Cl channel; experiment: GABAA Cl channel, TBOB site competitive binding (3H-TBOB), single concentration; conditions: Conc. 1.0E−3 M, bovine hippocampus
[9] = target: GABAA Cl channel; experiment: GABAA Cl channel binding constant determination (3H-TBOB, increasing concentration, Hill plots); conditions: bovine hippocampus
Experimental: (§3) The suspension was centrifuged at 1000×g for 10 minutes at 4° C. The pellet was washed twice in assay buffer and reacted with radioactive ligand in presence or absence of […] at 10^−4 M final concentration. The amount of radioactivity remained on the Whatman filter following filtration of the reaction mix and two washes with assay buffer was determined using a liquid scintillation counter. Inhibition of radioactive ligand binding by melatonin represents the competitive binding of melatonin to the same site as the radioactive ligand. GABAA Cl channel were assayed using ^3H-TBOB. The binding was carried out in the presence of increasing concentration of melatonin and the KD determined graphically using the Hill plots. In vivo hypnotic activity was determined as follow. Drugs solubilized in DMSO were administered to rats by tail vein injection (N=5 rats per group). A dose level of 28 μmol/kg (5 mg/kg for propofol) was used to compensate for differences in molecular weight of the analogs. Anesthetic activity in vivo was determined as time to recovery of righting reflex following administration of the compounds.

[10] = test system: rats; experiment: In vivo hypnotic activity: time to recovery of righting reflex after tail vein injection; conditions: 28 μmol/kg (5 mg/kg for propofol), in DMSO
Experimental: as §3

[11] = test system: Dawley rats; experiment: Response to tail clamping after single i.v. bolus; format: in vivo; conditions: single i.v. bolus 15 mg/kg, in 10% ethanol/16% Cremophor
Experimental: This example illustrates the tail clamping with melatonin analogs. Dawley rats (Harlan, Indianapolis, Ind., USA) were weighed and anaesthetized with isoflurane. In all rats, the right jugular vein was cannulated with a heparinized saline filled catheter. Studies were carried out 5-7 days after surgery.
Tail clamp was tested by application of a rubber-clad vascular clamp (22 cm DeBakey) across the proximal third of the tail. Purposeful movement of the hind limbs and/or the head was noted as a positive response.

CC(C)c1cccc(C(C)C)c1O [2,6-Diisopropylphenol, reference compound]
Specific binding, GABAA Agonist site (inhibition of radioactive ligand binding) ([1]; Conc. 1.0E−4 M): 12.48% | Specific binding, GABAA Alpha 1 site (inhibition of radioactive ligand binding) [2]: −14.31% | Specific binding, GABAA Alpha 6 site (inhibition of radioactive ligand binding) [3]: −0.89% | Specific binding, GABAA Ion Channels Cl−, TBOB site (inhibition of radioactive ligand binding) [4]: 117.52% | Effect of bolus injection on righting reflex ([5]; bolus injection of 10 mg/kg): immediate loss of righting reflex | ED95 (95% CI, for loss of righting reflex) [5]: 14.9 mg/kg

COc1ccc2[nH]c(-c3cccc(C(F)(F)F)c3)c(CCNC(C)=O)c2c1 [2-(3-Trifluoromethylphenyl) melatonin, N-(2-(2-(3-trifluoromethylphenyl)-5-methoxy-1H-indol-3-yl)ethyl)acetamide]
Specific binding, GABAA Alpha 1 site (inhibition of radioactive ligand binding) [2]: 15.61% | Specific binding, GABAA Alpha 6 site (inhibition of radioactive ligand binding) [3]: 25.39% | Specific binding, GABAA Ion Channels Cl−, TBOB site (inhibition of radioactive ligand binding) [4]: 79.60%

COc1ccc2[nH]c(-c3ccc(F)cc3)c(CCNC(C)=O)c2c1 [2-(4-Fluorophenyl) melatonin, N-(2-(2-(4-fluorophenyl)-5-methoxy-1H-indol-3-yl)ethyl)acetamide]
Specific binding, GABAA Alpha 1 site (inhibition of radioactive ligand binding) [2]: 28.80% | Specific binding, GABAA Alpha 6 site (inhibition of radioactive ligand binding) [3]: 20.76% | Specific binding, GABAA Ion Channels Cl−, TBOB site (inhibition of radioactive ligand binding) [4]: 110.10%

COc1ccc2[nH]c(-c3ccc(C)cc3)c(CCNC(C)=O)c2c1 [2-(4-Methylphenyl) melatonin, N-(2-(5-methoxy-2-p-tolyl-1H-indol-3-yl)ethyl)acetamide]
Specific binding, GABAA Alpha 1 site (inhibition of radioactive ligand binding) [2]: 10.28% | Specific binding, GABAA Alpha 6 site (inhibition of radioactive ligand binding) [3]: 32.93% | Specific binding, GABAA Ion Channels Cl−, TBOB site (inhibition of radioactive ligand binding) [4]: 101.46%

COc1ccc2[nH]c(-c3ccc(C(F)(F)F)cc3)c(CCNC(C)=O)c2c1 [2-(4-Trifluoromethylphenyl) melatonin, N-(2-(2-(4-trifluoromethylphenyl)-5-methoxy-1H-indol-3-yl)ethyl)acetamide]
Specific binding, GABAA Alpha 1 site (inhibition of radioactive ligand binding) [2]: 8.11% | Specific binding, GABAA Alpha 6 site (inhibition of radioactive ligand binding) [3]: 25.87% | Specific binding, GABAA Ion Channels Cl−, TBOB site (inhibition of radioactive ligand binding) [4]: 103.23%

COc1ccc2[nH]c(Br)c(CCNC(C)=O)c2c1 [2-Bromomelatonin, N-(2-(2-bromo-5-methoxy-1H-indol-3-yl)ethyl)acetamide]
Specific binding, GABAA Agonist site (inhibition of radioactive ligand binding) ([1]; Conc. 1.0E−3 M): −8.55% | Specific binding, GABAA Alpha 1 site (inhibition of radioactive ligand binding) [6]: 8.35% | Specific binding, GABAA Alpha 6 site (inhibition of radioactive ligand binding) [7]: −12.69% | Specific binding, GABAA Ion Channels Cl−, TBOB site (inhibition of radioactive ligand binding) [8]: 51.87%

COc1ccc2[nH]c(-c3ccccc3)c(CCNC(C)=O)c2c1 [2-Phenylmelatonin, N-(2-(5-methoxy-2-phenyl-1H-indol-3-yl)ethyl)acetamide]
Specific binding, GABAA Agonist site (inhibition of radioactive ligand binding) ([1]; Conc. 1.0E−4 M): 0.33% | Specific binding, GABAA Alpha 1 site (inhibition of radioactive ligand binding) [2]: 35.16% | Specific binding, GABAA Alpha 6 site (inhibition of radioactive ligand binding) [3]: 12.48% | Specific binding, GABAA Ion Channels Cl−, TBOB site (inhibition of radioactive ligand binding) [4]: 84.28%

CC(=O)NCCc1c(Cc2ccccc2)[nH]c2ccccc12 [Luzindole, reference compound]
Specific binding, GABAA Agonist site (inhibition of radioactive ligand binding) ([1]; Conc. 1.0E−4 M): 5.84% | Specific binding, GABAA Alpha 1 site (inhibition of radioactive ligand binding) [2]: 5.09% | Specific binding, GABAA Alpha 6 site (inhibition of radioactive ligand binding) [3]: 4.93% | Specific binding, GABAA Ion Channels Cl−, TBOB site (inhibition of radioactive ligand binding) [4]: 47.55%

COc1ccc2[nH]cc(CCNC(C)=O)c2c1 [Melatonin, N-acetyl-5-methoxytryptamine]
Specific binding, GABAA Agonist site (inhibition of radioactive ligand binding) ([1]; Conc. 1.0E−3 M): −3.11% | Specific binding, GABAA Alpha 1 site (inhibition of radioactive ligand binding) [6]: 39.80% | Specific binding, GABAA Alpha 6 site (inhibition of radioactive ligand binding) [7]: 17.50% | Specific binding, GABAA Ion Channels Cl−, TBOB site (inhibition of radioactive ligand binding) [8]: 39.44% | Effect of bolus injection on righting reflex ([5]; bolus injection of 312 mg/mL): immediate loss of righting reflex

CC(C)c1cccc(C(C)C)c1O [drawing 16, reference compound]
pIC50 [9]: 5.31 | Anesthesia Activity (Time to awakening, min) [10]: 20.8 min

COc1ccc2[nH]c(-c3ccccc3)c(CCNC(C)=O)c2c1 [drawing 18]
pIC50 [9]: 3.97

COc1ccc2[nH]c(-c3ccc(F)cc3)c(CCNC(C)=O)c2c1 [drawing 19]
pIC50 [9]: 4.55 | Anesthesia Activity (Time to awakening, min) [10]: 3.0 min

COc1ccc2[nH]c(-c3ccc(C(F)(F)F)cc3)c(CCNC(C)=O)c2c1 [drawing 20]
pIC50 [9]: 4.88 | Anesthesia Activity (Time to awakening, min) [10]: 20.8 min

COc1ccc2[nH]c(-c3ccc(C)cc3)c(CCNC(C)=O)c2c1 [drawing 21]
pIC50 [9]: 4.47 | Anesthesia Activity (Time to awakening, min) [10]: 4.8 min

COc1ccc2[nH]c(-c3cccc(C(F)(F)F)c3)c(CCNC(C)=O)c2c1 [drawing 22]
Anesthesia Activity (Time to awakening, min) [10]: 3.8 min

COc1ccc(-c2[nH]c3ccc(OC)cc3c2CCNC(C)=O)cc1 [drawing 23]
pIC50 [9]: 4.70 | Anesthesia Activity (Time to awakening, min) [10]: 3.5 min

COc1ccc2[nH]c(-c3ccc(C(C)(C)C)cc3)c(CCNC(C)=O)c2c1 [drawing 24]
Anesthesia Activity (Time to awakening, min) [10]: 20.3 min

COc1ccc2[nH]c(-c3ccccc3)c(CCNC(C)=O)c2c1 [drawing 25, reference compound]
# lack of response rat/tested rat [11]: 0/5 | Time of lack of response to the tail clamp, min [11]: No effect

COc1ccc2[nH]c(-c3ccc(F)cc3)c(CCNC(C)=O)c2c1 [drawing 26]
# lack of response rat/tested rat [11]: 5/5 | Time of lack of response to the tail clamp [11]: 2 min

COc1ccc2[nH]c(-c3ccc(C(F)(F)F)cc3)c(CCNC(C)=O)c2c1 [drawing 27]
# lack of response rat/tested rat [11]: 4/5 | Time of lack of response to the tail clamp [11]: 15 min

COc1ccc2[nH]c(-c3cccc(C(F)(F)F)c3)c(CCNC(C)=O)c2c1 [drawing 28]
# lack of response rat/tested rat [11]: 5/5 | Time of lack of response to the tail clamp [11]: 5 min

COc1ccc2[nH]c(-c3ccc(C(C)(C)C)cc3)c(CCNC(C)=O)c2c1 [drawing 29]
# lack of response rat/tested rat [11]: 5/5 | Time of lack of response to the tail clamp [11]: 5 min

CCCC(C)C1(CC)C(=O)NC(=S)NC1=O (centres unmarked) [thiopental]
ED95 (95% CI, for loss of righting reflex) [5]: 8 mg/kg
